# Values quoted from earlier work as cited in paper PMC7135267, “Modified linear regression predicts drug-target interactions accurately” (PLoS ONE, 2020).
# Test system: CFTR
# Conditions: rats, caffeine intake
smiles,measurement,value
"Cn1c(=O)c2c(ncn2C)n(C)c1=O [D00528, Caffeine]",CFTR chloride secretion in intestine,increased
